US10064843B2, “Bis-amide derivative and use thereof” (University-Industry Cooperation Group of Kyung Hee …, priority 2013, dated 2018)

What was measured:
HCV replicon cells = test: Luciferase activity in HCV replicon cells; format: cell-based; settings: Hepatitis C virus, 72 h, read-out: inhibition of luciferase activity of HCV
Procedure: Additionally, a series of compounds (WJCPA-1 to WJCPA-135) having the bis-amide structure as a parent structure in common, based on the inhibitory effect of WJCPA-126 against the PPIase activity, were synthesized and their activities were confirmed. Specifically, Huh7-rep cells were treated with each of the compounds at a concentration of 2 μM for 3 days, and the expression level of NS5A was confirmed by performing an immunoblot analysis according to a known method (FIG. 5). The 32 kinds of compounds confirmed to have excellent inhibitory effect especially against the NS5A expression from the immunoblot experiment were measured regarding their inhibitory effect against luciferase activity and the results are illustrated in FIG. 6. In the same manner as in western blot, the HCV replicon cells were treated with each of the compounds at a concentration of 2 μM and incubated for 72 hours, and the total cell lysate of the cultured cells were used for the analyses of western blot and the activity of luciferase.

NFAT1 = test: NFAT dephosphorylation by western blot and immunofluorescence; format: cell-based, mouse
Procedure: Upon stimulation, the cells were washed with sterile PBS, suspended in lysis buffer (Invitrogen, Carlsbad, Calif., USA), incubated on ice for 10 minutes, and centrifuged at 19,000 g for 15 minutes. The phosphorylation state of the NFAT protein in the supernatant was confirmed by western blot analysis using monoclonal anti-NFATc 1. For the confirmation of NFAT1 localization using a confocal microscope, the cells were washed and then fixed by treating with 3.7% formaldehyde at room temperature for 20 minutes. […] Upon incubation, the cells were washed twice with PBS and incubated in a dark room at room temperature with secondary antibody, which was conjugated with Alexa 546 (Invitrogen, Carlsbad, Calif., USA) diluted in PBS containing 3% BSA at a 1:200 ratio, for 2 hours. […] Finally, the cells were washed once with PBS and mounted onto glass slides using a coverslip and a mounting solution (Vector Mount, Calif., USA). The images were captured via Zeiss confocal laser scanning microscope (Zeiss, Germany).

in vitro = format: cell-based, hepatitis C virus; settings: genotype 1b Con1b; FIG. 11a
Procedure: (§1) The effect of WJCPA-126 was determined in percentage of fluorescent cells in each image using sub-genotype 1b replicated cells. EC50 and CC50 were determined via nonlinear regression analysis using GraphPad Prism (GraphPad Software). The GFP expression level was quantitated and shown in the left panel. The images of GFP at the level of replicated cells were obtained while increasing the concentration of WJCPA-126 and are shown on the right panel.

[1] = test system: genotype 1b (Con1b) replication cells; test: microbe, parasite or virus in culture; format: cell-based, hepatitis C virus; settings: Hepatitis C virus
Procedure: as §1

IFN-α = IFN-α mRNA and IFN-α ELISA in HCV replicon cell; format: cell-based, human
Procedure: Example 11: Determination of IL-8 and INF-α Concentrations in Cell Culture Media by ELISA
Upon incubation, the cell culture media were collected and the IL-8 and IFN-α concentrations were analyzed according to the protocol of eBioscience (San Diego, Calif., USA) by ELISA.
Example 19: Real-Time Quantitative Reverse Transcriptase PCR Analysis
Real-time quantitative reverse transcriptase PCR (qRT-PCR) was performed using SYBR Green PCR Master Mix (Invitrogen/Applied Biosystem, Carlsbad, Calif., USA) and ABI Prism 7300 Real-time PCR System (Applied Biosystems, Carlsbad, Calif., USA) according to the manufacturer's instructions. Calculations were performed based on […] method using the following equation: R (ratio)=2-[ΔCT (sample)-ΔCT (control group)]. The data were expressed as fold change of the treated group relative to the control group and standardized relative to the glyceraldehyde 3-phosphate dehydrogenase (GAPDH) level.

HCV replicon cell = test: Combined treatment: MTT analysis in HCV replicon cell; format: cell-based, human
Procedure: Example 9: Analysis of Cytotoxicity
Cytotoxicity was analyzed in a 96-well plate using 5 mg/mL of MTT (3-(4,5-dimethylthiasol-2-yl)-2,5-diphenyltetrazolium bromide). The optical density of cells was measured at 550 nm using a microplate reader (Bio-Rad, Richmond, Calif., USA). Cell viability rate was expressed in percentage of the absorbance of treated cells relative to the absorbance of untreated cells.

HCV-Con1b replicon = test: HCV mouse model (NOD/SCID mice transplanted with Huh7 HCV-Con1b replicon cells); settings: 50 mg/kg intraperitoneally daily, two weeks
Procedure: Five to six-week old immunodeficient NOD/SCID mice (Charles River Laboratories, USA) were used. The use of experimental animals and experimental protocol (KHUASP (SE)-11-045) was approved by the Institutional Animal Care and Use Committee of Kyung Hee University (Seoul, Korea). The control Huh7 cells or the Huh7 cells including the HCV-Con1b replicon were injected into mice intrasplenically (1×10^6 cells/200 μL of PBS). Cell transplantation and surgical procedures were performed under anesthesia along with a prophylactic antibiotic. […] Each treatment group consisted of 5 mice. Upon completion of the treatment, the mice were sacrificed and liver tissues were collected from them for analysis.
Murine liver tissues were dissected and then cryoprotected in 30% sucrose for the preparation of paraffin-embedded samples. Paraffin samples for Hematoxylin and Eosin (H&E) staining were prepared. After removing paraffin, rehydrated samples were incubated with monoclonal antibodies to human hepatocytes (Hep par 1) and HCV NS5A (Santa Cruz, Calif., USA), which were diluted at a ratio of 1:50, at 4° C. overnight. […] The nuclei were stained with DAPI for 5 minutes and analyzed using a confocal microscope.
HCV RNA was extracted from liver tissue by Trizol method. Mouse liver tissues were mechanically destroyed and lysed in Trizol (Invitrogen, Carlsbad, Calif., USA). The quantitative analysis of HCV RNA was performed using real-time transcription PCR.

Procedure for Toxicity in BALB/c mice: The experimental animals were divided into three groups (n=5) and one of the groups was used as the untreated control group. […] Fourteen days after the administration, blood samples were collected from the treat groups and the control group, respectively. The weight of experimental mice was measured for the evaluation of systemic toxicity in mice. For the confirmation of hepatotoxicity, the AST and ALT activities were measured according to the manufacturer's protocols applied to a 96-well microplate using the GOT-GPT kit (Asan Pharm, Korea). The analysis results regarding the AST and ALT activities were shown in IU/L units. For the confirmation of nephrotoxicity, the blood urea nitrogen (BUN) was measured using the Blood Urea Nitrogen Enzymatic Assay kit (Bioo Scientific, Austin, Tex., USA), and the creatine level in the serum was measured using the Mouse Creatine Assay kit (Crystal Chem, Inc., Downers Grove, Ill., USA).

SMILES: COc1cc(C(C(=O)NC2CCCCC2)N(C(=O)Cc2c[nH]c3ccccc23)c2ccc(C(C)C)cc2)cc(OC)c1OC (centres unmarked) [WJCPA-126, N-cyclohexyl-2-[(2-1H-indol-3-yl-acetyl)-(4-isopropyl-phenyl)-amino]-2-(3,4,5-trimethoxy-phenyl)-acetamide]
- inhibition at 2 µM (HCV replicon cells): ≤ 80%
- NFAT1 migration into the nucleus (NFAT1; ionomycin stimulation, FIG. 9b): significant localization of NFAT1 within the nucleus
- phosphorylation state of NFAT1 (NFAT1; ionomycin-stimulated, FIG. 9a): maintained the dephosphorylated state of NFAT1
- CC50 (in vitro): 12.4 ± 2.1 µM
- EC50 [1]: 0.73 ± 0.1 µM
- mRNA level of IFN-α (IFN-α; 48 hours after the treatment, FIG. 15d): cannot control the mRNA level of IFN-α
- IFN-α production (ELISA) (IFN-α; FIG. 15e): significantly increase the IFN-α production
- cytotoxicity in combined treatment (HCV replicon cell; in combination with IFN-α, RBV, or telaprevir, FIG. 16a): did not show any noticeable cytotoxicity
- cell viability in combined treatment (HCV replicon cell; in combination with interferon-α, ribavirin, or telaprevir): ≥ 80%
- body weight (HCV-Con1b replicon; FIG. 19a): did not show any noticeable change in body weight
- HCV RNA level in liver (HCV-Con1b replicon; FIG. 19b): relatively higher level of inhibition on the HCV RNA level than the CsA treatment
- HCV NS5A in transplanted mouse liver tissue (immunofluorescence) (HCV-Con1b replicon; FIG. 20): only faintly detected
- serum ALT and AST (Toxicity in BALB/c mice; 50 mg/kg for 2 weeks, FIG. 17b, 17c): No difference was observed
- safety parameters (body weight, serum ALT, AST, BUN, creatinine) (Toxicity in BALB/c mice; 50 mg/kg intraperitoneally daily, 14 days, FIG. 17): did not induce any noticeable change on safety parameters
